Literature values in patent US11555040B2, “Oxepinopyrazole derivatives as inhibitors of P13-kinase activity” (GLAXOSMITHKLINE INTELLECTUAL PROPERTY DEVELOPMENT LIMITED, priority 2017, dated 2023).

System: amphetamine-induced psychosis
Conditions: Law et al. 2012

In the case of Cc1ccccc1-n1c(Cn2cnc3c(N)ncnc32)nc2cccc(C)c2c1=O [IC87114], the “efficacy in mouse model of amphetamine-induced psychosis” value is given as “remarkable efficacy”.
